Among the data in patent publication US20240043404A1 (AbbVie Inc., priority 2009, published 2024) are EC50 values, retold here.

The structures appear in SMILES notation.

The test system of the first experiment is RS4;11 cells. Put plainly: RS4;11 cell viability assay (CellTiter Glo).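 Further: acute lymphoblastic leukemia line RS4,11, EC50 derived from percentage of viable cells after treatment relative to untreated controls, cell killing taken as a measure of Bcl-2 inhibition.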 The format is cell-based, human. Conditions: Homo sapiens, RS4-11, 48 h, 50,000 cells per well, 10% human serum, 48 hours; read-out: RS4; 11 EC50 Values. In general terms: ATP-based viability assays read luminescence as a measure of living cells.
Experimental: The acute lymphoblastic leukemia (ALL) cell line RS4;11 was used as the primary human cell line to assess the cellular activity of Bcl-2 selective agents in vitro and their efficacy in vivo.
Cell cytotoxicity EC50 values were assessed using CellTiter Glo (Promega) according to the manufacturer's recommendations. The EC50 values were determined as a percentage of viable cells following treatment compared to the untreated control cells.
As for `CC1(C)CCC(CN2CCN(c3ccc(C(=O)NS(=O)(=O)c4ccc(NCC5CN(CC(F)F)CCO5)c([N+](=O)[O-])c4)c(Oc4cnc5[nH]ccc5c4)c3)CC2)=C(c2ccc(Cl)cc2)C1` (centres unmarked) [Example 166, 4-(4-{[2-(4-chlorophenyl)-4,4-dimethylcyclohex-1-en-1-yl]methyl}piperazin-1-yl)-N-{[4-({[4-(2,2-difluoroethyl)morpholin-2-yl]methyl}amino)-3-nitrophenyl]sulfonyl}-2-(1H-pyrrolo[2,3-b]pyridin-5-yloxy)benzamide], the EC50 amounted to 11.8 nM. Regarding `O=C(NS(=O)(=O)c1ccc(NCC2CCOCC2)c([N+](=O)[O-])c1)c1ccc(N2CCN(CC3=C(c4ccc(Cl)cc4)CCC4(CCCC4)C3)CC2)cc1Oc1cnc2[nH]ccc2c1` [Example 79, 4-(4-{[8-(4-chlorophenyl)spiro[4.5]dec-7-en-7-yl]methyl}piperazin-1-yl)-N-({3-nitro-4-[(tetrahydro-2H-pyran-4-ylmethyl)amino]phenyl}sulfonyl)-2-(1H-pyrrolo[2,3-b]pyridin-5-yloxy)benzamide], the EC50 amounted to 64.9 nM. Regarding `COCCNc1ccc(S(=O)(=O)NC(=O)c2ccc(N3CCN(CC4=C(c5ccc(Cl)cc5)CC(C)(C)CC4)CC3)cc2Oc2cnc3[nH]ccc3c2)cc1S(=O)(=O)C(F)(F)F` [Example 16, 4-(4-{[2-(4-chlorophenyl)-4,4-dimethylcyclohex-1-en-1-yl]methyl}piperazin-1-yl)-N-({4-[(2-methoxyethyl)amino]-3-[(trifluoromethyl)sulfonyl]phenyl}sulfonyl)-2-(1H-pyrrolo[2,3-b]pyridin-5-yloxy)benzamide], the EC50 amounted to 1210 nM.

With `CC1(C)CCC(CN2CCN(c3ccc(C(=O)NS(=O)(=O)c4ccc(NCC5CN(C6COC6)C5)c([N+](=O)[O-])c4)c(Oc4cnc5[nH]ccc5c4)c3)CC2)=C(c2ccc(Cl)cc2)C1` [Example 162, 4-(4-{[2-(4-chlorophenyl)-4,4-dimethylcyclohex-1-en-1-yl]methyl}piperazin-1-yl)-N-[(3-nitro-4-{[(1-oxetan-3-ylazetidin-3-yl)methyl]amino}phenyl)sulfonyl]-2-(1H-pyrrolo[2,3-b]pyridin-5-yloxy)benzamide], the EC50 was found to be 13 nM. For the molecule `CC1(C)CCC(CN2CCN(c3ccc(C(=O)NS(=O)(=O)c4ccc(N[C@H]5CC[C@@H](N6CCOCC6)C5)c([N+](=O)[O-])c4)c(Oc4cnc5[nH]ccc5c4)c3)CC2)=C(c2ccc(Cl)cc2)C1` [Example 111, 4-(4-{[2-(4-chlorophenyl)-4,4-dimethylcyclohex-1-en-1-yl]methyl}piperazin-1-yl)-N-[(4-{[(1S,3R)-3-morpholin-4-ylcyclopentyl]amino)-3-nitrophenyl)sulfonyl]-2-(1H-pyrrolo[2,3-b]pyridin-5-yloxy)benzamide], the EC50 was determined as 14.5 nM. As to `CN(C)CCCOc1ccc(CNc2ccc(S(=O)(=O)NC(=O)c3ccc(N4CCN(CC5=C(c6ccc(Cl)cc6)CC(C)(C)CC5)CC4)cc3Oc3cnc4[nH]ccc4c3)cc2[N+](=O)[O-])cc1` [Example 197, 4-(4-{[2-(4-chlorophenyl)-4,4-dimethylcyclohex-1-en-1-yl]methyl}piperazin-1-yl)-N-{[4-({4-[3-(dimethylamino)propoxy]benzyl}amino)-3-nitrophenyl]sulfonyl}-2-(1H-pyrrolo[2,3-b]pyridin-5-yloxy)benzamide], the EC50 is 12.5 nM.

`CC1(C)CCC(CN2CCN(c3ccc(C(=O)NS(=O)(=O)c4ccc(NCC5CCOCC5)c(Cl)c4)c(Oc4cnc5[nH]ccc5c4)c3)CC2)=C(c2ccc(Cl)cc2)C1` [Example 306, 4-(4-{[2-(4-chlorophenyl)-4,4-dimethylcyclohex-1-en-1-yl]methyl}piperazin-1-yl)-N-({3-chloro-4-[(tetrahydro-2H-pyran-4-ylmethyl)amino]phenyl}sulfonyl)-2-(1H-pyrrolo[2,3-b]pyridin-5-yloxy)benzamide]: the EC50 stood at 553 nM. In the case of `CC1(C)CCC(CN2CCN(c3ccc(C(=O)NS(=O)(=O)c4cnc(OCCN5CCOCC5)c(C#N)c4)c(Oc4cnc5[nH]ccc5c4)c3)CC2)=C(c2ccc(Cl)cc2)C1` [Example 57, 4-(4-{[2-(4-chlorophenyl)-4,4-dimethylcyclohex-1-en-1-yl]methyl}piperazin-1-yl)-N-{[5-cyano-6-(2-morpholin-4-ylethoxy)pyridin-3-yl]sulfonyl}-2-(1H-pyrrolo[2,3-b]pyridin-5-yloxy)benzamide], the EC50 is 426 nM.

Consider `CC1(C)CCC(CN2CCN(c3ccc(C(=O)NS(=O)(=O)c4ccc(NCC5CN(CCF)CCO5)c([N+](=O)[O-])c4)c(Oc4cnc5[nH]ccc5c4)c3)CC2)=C(c2ccc(Cl)cc2)C1` (centres unmarked) [Example 165, 4-(4-{[2-(4-chlorophenyl)-4,4-dimethylcyclohex-1-en-1-yl]methyl}piperazin-1-yl)-N-{[4-({[4-(2-fluoroethyl)morpholin-2-yl]methyl}amino)-3-nitrophenyl]sulfonyl}-2-(1H-pyrrolo[2,3-b]pyridin-5-yloxy)benzamide], for which the EC50 is 5.1 nM.

As to `CC1(C)CCC(CN2CCN(c3ccc(C(=O)NS(=O)(=O)c4cnc(OC[C@H]5CC[C@H](O)CC5)c(Cl)c4)c(Oc4cnc5[nH]ccc5c4)c3)CC2)=C(c2ccc(Cl)cc2)C1` [Example 298, N-({5-chloro-6-[(trans-4-hydroxycyclohexyl)methoxy]pyridin-3-yl}sulfonyl)-4-(4-{[2-(4-chlorophenyl)-4,4-dimethylcyclohex-1-en-1-yl]methyl}piperazin-1-yl)-2-(1H-pyrrolo[2,3-b]pyridin-5-yloxy)benzamide], the EC50 was determined as 70.3 nM. Same read-out and setting: with `CO[C@H]1CC[C@@H](COc2ncc(S(=O)(=O)NC(=O)c3ccc(N4CCN(CC5=C(c6ccc(Cl)cc6)CC(C)(C)CC5)CC4)cc3Oc3cnc4[nH]ccc4c3)cc2Cl)CC1` [Example 211, Cis-N-({5-chloro-6-[(4-methoxycyclohexyl)methoxy]pyridin-3-yl}sulfonyl)-4-(4-{[2-(4-chlorophenyl)-4,4-dimethylcyclohex-1-en-1-yl]methyl}piperazin-1-yl)-2-(1H-pyrrolo[2,3-b]pyridin-5-yloxy)benzamide] the figure was 307 nM.

Regarding `CC1(C)CCC(CC2CCN(c3ccc(C(=O)NS(=O)(=O)c4ccc(OCC5CCOCC5)c(Cl)c4)c(Oc4cnc5[nH]ccc5c4)c3)CC2)=C(c2ccc(Cl)cc2)C1` [Example 316, 4-(4-{[2-(4-chlorophenyl)-4,4-dimethylcyclohex-1-en-1-yl]methyl}piperidin-1-yl)-N-{[3-chloro-4-(tetrahydro-2H-pyran-4-ylmethoxy)phenyl]sulfonyl}-2-(1H-pyrrolo[2,3-b]pyridin-5-yloxy)benzamide], the EC50 was > 1000 nM. Regarding `CC1(C)CCC(CN2CCN(c3ccc(C(=O)NS(=O)(=O)c4ccc(NCc5ccc(OCCN6CCOCC6)cc5)c([N+](=O)[O-])c4)c(Oc4cnc5[nH]ccc5c4)c3)CC2)=C(c2ccc(Cl)cc2)C1` [Example 198, 4-(4-{[2-(4-chlorophenyl)-4,4-dimethylcyclohex-1-en-1-yl]methyl}piperazin-1-yl)-N-[(4-{[4-(2-morpholin-4-ylethoxy)benzyl]amino}-3-nitrophenyl)sulfonyl]-2-(1H-pyrrolo[2,3-b]pyridin-5-yloxy)benzamide], the EC50 was 36.2 nM.

Staying with this experiment, now noted: Homo sapiens, RS4-11, Table 5, direct comparison Z=N with corresponding analogs Z=C; read-out: RS4; 11 EC50.
As to `COCCNc1ccc(S(=O)(=O)NC(=O)c2ccc(N3CCN(CC4=C(c5ccc(Cl)cc5)CC(C)(C)CC4)CC3)cc2Oc2cnc3[nH]ccc3c2)cc1S(=O)(=O)C(F)(F)F` [Example 16, 4-(4-{[2-(4-chlorophenyl)-4,4-dimethylcyclohex-1-en-1-yl]methyl}piperazin-1-yl)-N-({4-[(2-methoxyethyl)amino]-3-[(trifluoromethyl)sulfonyl]phenyl}sulfonyl)-2-(1H-pyrrolo[2,3-b]pyridin-5-yloxy)benzamide], the EC50 is 1210 nM.
